Measured values published in US4965280A, “Antifungal carbinols” (E. I. Du Pont de Nemours and Company, priority 1989, dated 1990).
Converted amounts (≈) assume the structure as drawn. Like-named read-outs stand apart in the source and are kept apart here.

Legend:
[1] = system: Candida albicans ATCC 11651; experiment: In vitro antifungal MIC, microtiter broth dilution; settings: for MIC: Candida albicans, ATCC11651, 24 h, read-out: MIC values, C. albicans, 30°, 24 hours
[2] = system: Puccinia recondita; experiment: Example G wheat leaf rust; assay type: in vivo; settings: 20 PPM, read-out: disease control rating, Ex. G
[3] = system: Pyricularia oryzae; experiment: whole plant or invertebrate; assay type: in vivo; settings: for pest or weed control at 20 ppm / pest or weed control at 100 ppm: Pyricularia oryzae, 120 h; for pest or weed control at 20 ppm: read-out: disease control rating, Ex. E, 20 PPM; for pest or weed control at 100 ppm: read-out: disease control rating, Ex. E, 100 PPM
[4] = system: Cercosporidium personatum; experiment: Example B Peanut Late Leafspot; assay type: in vivo; settings: Nothopassalora personata; 20 PPM; read-out: disease control rating, Ex. B
Method: (§1) The test compounds were dissolved in acetone in an amount equal to 6% of the final volume and then suspended at a concentration of 100 or 20 ppm in purified water containing 250 ppm of the surfactant TREM 014 (polyhydric alcohol esters). This suspension was sprayed to the point of run-off on peanut seedlings.

[5] = system: Candida albicans ATCC 11651; experiment: In vivo systemic Candida infection in mice, primary assay; design: species or system Candida albicans; CF-1 female mice; settings: 150 mg/kg per day; for responders at 150 mg/kg: Candida albicans, read-out: % Survival
From the text: The […] activity of test compounds is based on the percent (%) survival of infected animals receiving test or standard agent compared to that in an infected untreated group (Table 6). The in vivo assays are chronic systemic infections lethal to mice within 7 days post infection, [J. Barnes, et al. Lab Investigation, 49 460-467 (1963), and T. Rogers and E. Balish, Infection and Immunity, 14 33-38 (1976)].
Candida albicans ATCC 11651, from a frozen stock culture (10^9 organisms/ml) maintained at -70°, is diluted in saline to 1×10^7 organisms/ml and 0.2 ml inoculated intravenously (caudal vein) into 20.0 gm CF-1 female mice (Charles River).
Test compounds are routinely solubilized in 0.25% (w/v) methylcellulose (Methocel®) but for those compounds difficult to solubilize 10% (w/v) Emulophor® (EL620 GAF Corp.) is used. The standard antifungal agents, amphotericin B (Fungizone®) in water and ketoconazole (Nizoral®) in Methocel®, are administered at 1.0 mg/kg/day and 150 mg/kg/day, respectively.
In a primary assay, mice (10 per group) are infected with C. albicans, and receive test compounds at 50 or 150 mg/kg/day via the subcutaneous route. Animals are dosed with the test compound at 1 and 6 hour post-infection and then once daily for the next three days. Survival of mice in each group is recorded for 21 days.
Compounds which protect ≥70% of the infected animals for 14 days at a dose 150 mg/kg/day or less are viewed as active.

[6] = system: Aspergillus fumigatus ATCC 28214; experiment: In vitro antifungal MIC, microtiter broth dilution; settings: for MIC: Aspergillus fumigatus, ATCC28214, 24 h, read-out: MIC values, A. fumigatus, 30°, 24 hours
[7] = system: Erysiphe graminis f. sp. tritici; experiment: Example D wheat powdery mildew; assay type: in vivo; settings: Blumeria graminis, 144 h, read-out: disease control rating, Ex. D
Method: as §1, with “wheat” for “peanut”

[8] = system: Venturia inaequalis; experiment: Example A apple scab; assay type: in vivo; settings: 20 PPM, read-out: disease control rating, Ex. A
Method: as §1, with “apple seedings.” for “peanut seedlings.”

[9] = system: Plasmorpara viticola; experiment: Example I grape downy mildew; assay type: in vivo; settings: for pest or weed control at 100 ppm: read-out: disease control rating, Ex. I
Method: as §1, with “grape” for “peanut”

[10] = system: Phytophthora infestans; experiment: whole plant or invertebrate; assay type: in vivo; settings: for pest or weed control at 100 ppm: Phytophthora infestans, in Solanum lycopersicum, read-out: disease control rating, Ex. H, 100 PPM
[11] = system: Rhizoctonia solani; experiment: Example F rice sheath blight; assay type: in vivo; settings: for pest or weed control at 20 ppm / pest or weed control at 100 ppm: Rhizoctonia solani, 144 h, read-out: disease control rating, Ex. F
Method: as §1, with “rice” for “peanut”

[12] = system: Botrytis cinerea; experiment: Example C bean grey mold; assay type: in vivo; settings: for pest or weed control at 20 ppm / pest or weed control at 100 ppm: Botrytis cinerea, 24 h, read-out: disease control rating, Ex. C
Method: as §1, with “broad bean” for “peanut”

Row | Structure (SMILES) | pest or weed control at 20 ppm [2] [%] | pest or weed control at 20 ppm [3] [%] | pest or weed control at 20 ppm [4] [%] | pest or weed control at 20 ppm [7] [%] | pest or weed control at 20 ppm [8] [%] | pest or weed control at 20 ppm [11] [%] | pest or weed control at 20 ppm [12] [%] | MIC [1] [µg/mL] | pest or weed control at 100 ppm [3] [%] | responders at 150 mg/kg ([5]; ATCC11651, 168 h, day 7) [%] | responders at 150 mg/kg ([5]; ATCC11651, 336 h, day 14) [%] | responders at 150 mg/kg ([5]; ATCC11651, 504 h, day 21) [%] | MIC [6] [µg/mL] | pest or weed control at 100 ppm [9] [%] | pest or weed control at 100 ppm [10] [%] | pest or weed control at 100 ppm ([11]; 100 PPM) [%] | pest or weed control at 100 ppm ([12]; 100 PPM) [%] | further results
1 | C=C(c1ccc(F)cc1)C(O)(Cn1cncn1)c1ccc(F)cc1 (single isomer, unassigned) [Example 1277a] | 100 | 1 | 74 | 95 | 58 | 0 | 24 | – | – | – | – | – | – | – | – | – | – | MIC values, C. albicans ([1]; 30°, 24 hours): 6.3 µg/mL (≈ 19.2 µM); disease control rating, Ex. E ([3]; 100 PPM): 1%; % Survival ([5]; day 7): 80%; % Survival ([5]; day 14): 0%; % Survival ([5]; day 21): 0%; MIC values, A. fumigatus ([6]; 30°, 24 hours): 100 µg/mL (≈ 305 µM); disease control rating, Ex. I ([9]; 100 PPM): 31%; disease control rating, Ex. H ([10]; 100 PPM): 8%; disease control rating, Ex. F ([11]; 100 PPM): 52%; disease control rating, Ex. C ([12]; 100 PPM): 36%
2 | C=C(c1cccc(Cl)c1)C(O)(Cn1cncn1)c1ccc(F)cc1F (centres unmarked) [Example 42] | 100 | 15 | 100 | 98 | 29 | 0 | 38 | 0.03 (≈ 0.0829 µM) | 31 | 80 | 80 | 50 | 6.3 (≈ 17.4 µM) | 23 | 0 | 41 | 100 | pest or weed control at 100 ppm ([7]; 100 PPM): 100%
3 | C=C(c1cccc(Cl)c1)C(O)(Cn1cncn1)c1ccccc1F (centres unmarked) [Example 47] | 100 | 15 | 100 | 98 | 93 | 0 | 26 | 0.03 (≈ 0.0873 µM) | 31 | 90 | 80 | 30 | 1.6 (≈ 4.65 µM) | 25 | 0 | 47 | 89 | –
4 | C=C(c1ccc(SC)cc1)C(O)(Cn1cncn1)c1ccc(F)cc1 (centres unmarked) [Example 163] | 99 | 5 | 81 | 23 | 0 | 0 | 58 | 0.03 (≈ 0.0844 µM) | 5 | 90 | 60 | 40 | 12.5 (≈ 35.2 µM) | 0 | 0 | 0 | 95 | –
5 | C=C(c1ccc(SC)cc1)C(O)(Cn1cncn1)c1ccc(F)cc1F (centres unmarked) [Example 164] | 100 | 5 | 100 | 88 | 82 | 0 | 57 | 0.03 (≈ 0.0803 µM) | 15 | 100 | 80 | 70 | 1.6 (≈ 4.28 µM) | 0 | 8 | 0 | 84 | –
